Results from ChEMBL document CHEMBL1201862, “PubChem BioAssay data set” (2004).
The source made the active and inactive calls.

Columns and labels:
[1] = biological target: Mitogen-activated protein kinase 10 (Homo sapiens, UniProt P53779); experiment: Dose response biochemical screening assay for inhibitors of c-Jun N-Terminal Kinase 3 (JNK3). [Related pubchem assays: 746 ]
[2] = biological target: Lysosomal acid glucosylceramidase (Homo sapiens, UniProt P04062); experiment: Dose response cell-based high throughput screening assay to identify enhancers of beta-glucosidase activity. [Related pubchem assays: 784 ]; assay type: functional
[3] = biological target: Kappa-type opioid receptor (Homo sapiens, UniProt P41145); experiment: SAR analysis of small molecule agonists of the kappa opioid receptor via a luminescent beta-arrestin assay - Set 2. [Related pubchem assays (depositor defined):AID1777, AID1785, AID1786, AID1966, AID2133, AID2136, AID2284, AID449737]; assay type: functional
[4] = biological target: T1, Short transient receptor potential channel 4 (Mus musculus, UniProt Q9QUQ5); experiment: TRPC4 positive allosteric modulators, dose response, cell-based, HEK293 TRPC4/mu-opioid, Fluo-4 calcium, EC20 DAMGO (AID 434941); assay type: functional
T1 sequence (Q9QUQ5 whole entry): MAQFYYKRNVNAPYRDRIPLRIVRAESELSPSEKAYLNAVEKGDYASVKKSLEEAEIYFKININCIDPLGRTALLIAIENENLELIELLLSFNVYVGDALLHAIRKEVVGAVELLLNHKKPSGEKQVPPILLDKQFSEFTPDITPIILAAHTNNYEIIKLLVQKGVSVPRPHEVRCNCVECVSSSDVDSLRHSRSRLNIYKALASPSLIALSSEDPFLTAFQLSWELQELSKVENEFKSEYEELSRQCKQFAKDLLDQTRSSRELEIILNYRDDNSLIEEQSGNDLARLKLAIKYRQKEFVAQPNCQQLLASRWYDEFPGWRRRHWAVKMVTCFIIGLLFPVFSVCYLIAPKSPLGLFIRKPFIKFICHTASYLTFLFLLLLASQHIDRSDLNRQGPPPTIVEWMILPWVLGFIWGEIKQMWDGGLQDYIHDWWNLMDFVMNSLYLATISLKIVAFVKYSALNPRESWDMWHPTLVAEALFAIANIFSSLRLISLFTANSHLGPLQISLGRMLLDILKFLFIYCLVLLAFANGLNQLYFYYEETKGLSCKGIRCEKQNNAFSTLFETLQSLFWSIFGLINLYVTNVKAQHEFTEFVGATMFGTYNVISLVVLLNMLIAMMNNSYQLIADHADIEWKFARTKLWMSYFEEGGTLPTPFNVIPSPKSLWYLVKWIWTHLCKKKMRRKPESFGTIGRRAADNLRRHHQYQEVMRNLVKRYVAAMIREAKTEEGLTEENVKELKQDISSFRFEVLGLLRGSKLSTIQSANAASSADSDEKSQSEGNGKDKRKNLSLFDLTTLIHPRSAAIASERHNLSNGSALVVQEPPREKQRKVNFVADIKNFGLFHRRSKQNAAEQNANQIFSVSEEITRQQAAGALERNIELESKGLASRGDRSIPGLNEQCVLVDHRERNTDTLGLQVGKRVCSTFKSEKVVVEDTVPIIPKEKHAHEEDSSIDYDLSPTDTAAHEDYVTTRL

Interleukin-8 = Interleukin-8 (Homo sapiens, UniProt P10145); experiment: SAR analysis of tumor necrosis factor alpha (TNF-alpha) induced IL-8 secretion in MCF-7/NOD1 cells. [Related pubchem assays (depositor defined):AID1575, AID2250, AID2260]; assay type: functional, cell-based
HEK293 [5] = experiment: cells; details: Homo sapiens
HEK293 [6] = experiment: SAR analysis of compounds that are cytotoxic to HEK293 - Set 3. [Related pubchem assays (depositor defined):AID1575, AID1578, AID1848, AID1849, AID2001, AID2333, AID2334, AID2335, AID2337, AID2469]; assay type: functional, cell-based; details: Homo sapiens
Tumor necrosis factor = Tumor necrosis factor (Homo sapiens, UniProt P01375); experiment: TNFa-triggered NF-kB activation inhibitors, SAR follow-up, cell-based, revised (AID 2337); assay type: functional
[7] = polyadenylation inhibitors in yeast reporter, dose response, luminescence, S. cerevisiae SKY197-pL101 (AID 2525); assay type: functional, cell-based
[8] = biological target: Acyl-homoserine lactone acylase PvdQ (Pseudomonas aeruginosa (strain LESB58), UniProt Q9I194); experiment: P. aeruginosa PvdQ acylase inhibitors, dose response, biochemical, fluorescence, plate reader and imaging, cherry-picks (AID 493231)
[9] = LGR2 antagonists, dose response, cell-based, HEK293, CRE-luciferase reporter, cherry pick, set 2 (AID 743343); assay type: functional;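 also: transfected cells were stimulated with diluted bursicon conditioned medium after compound addition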
[10] = HepG2 cell cytotoxicity, dose response, cytotoxicity control, plate reader, cherry-pick, antagonist series (AID 743416); assay type: functional, cell-based
[11] = A549 cell cytotoxicity, dose response, cytotoxicity control, plate reader, cherry-pick, antagonist series (AID 743412); assay type: functional, cell-based
[12] = HEK293 cell cytotoxicity, dose response, cytotoxicity control, plate reader, cherry-picked samples (AID 743446); assay type: functional, cell-based
[13] = MC4R antagonists, dose response, counter-screen for LGR2 antagonist project, cell-based, plate reader, cherry pick (AID 743444); assay type: functional;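 also: transfected HEK 293 cells stimulated with alpha-MSH peptide; potency of inhibitors of the alpha-MSH evoked signal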
[14] = biological target: Melanin-concentrating hormone receptor 1 (Homo sapiens, UniProt Q99705); experiment: Late-stage fluorescence-based counterscreen for antagonists of the G-protein coupled receptor 7 (GPR7): cell-based dose response assay to identify antagonists of the melanin-concentrating hormone receptor 1 (MCHR1). [Related pubchem assays (depositor defined):AID1861, AID1880, AID1952, AID2148, AID2251, AID2257, AID485339]; assay type: functional;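 also: stimulated with 30 nM MCH peptide agonist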
[15] = biological target: Neuropeptides B/W receptor type 1 (Homo sapiens, UniProt P48145); experiment: GPR7 antagonist potency, late-stage follow-up, cell-based, fluorescence, dose response (AID 463251); assay type: functional
[16] = cytotoxicity in BJeHLT fibroblasts, dose response, counter-screen for Ras selective lethality project, BJeHLT cells, dry powder (AID 493052); assay type: functional, cell-based; details: Homo sapiens
[17] = cytotoxicity in BJeH fibroblasts, dose response, counter-screen for Ras selective lethality project, BJeH cells, dry powder (AID 493054); assay type: functional, cell-based

Chain of Tumor necrosis factor (P01375 whole entry): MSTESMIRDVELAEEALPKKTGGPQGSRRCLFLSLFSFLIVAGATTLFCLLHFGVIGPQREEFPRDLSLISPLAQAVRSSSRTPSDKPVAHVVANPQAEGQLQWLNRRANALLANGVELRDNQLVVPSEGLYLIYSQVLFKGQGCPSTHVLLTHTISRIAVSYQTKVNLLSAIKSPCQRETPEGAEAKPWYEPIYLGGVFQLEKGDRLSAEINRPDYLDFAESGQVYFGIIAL
Chain of Mitogen-activated protein kinase 10 (P53779 whole entry): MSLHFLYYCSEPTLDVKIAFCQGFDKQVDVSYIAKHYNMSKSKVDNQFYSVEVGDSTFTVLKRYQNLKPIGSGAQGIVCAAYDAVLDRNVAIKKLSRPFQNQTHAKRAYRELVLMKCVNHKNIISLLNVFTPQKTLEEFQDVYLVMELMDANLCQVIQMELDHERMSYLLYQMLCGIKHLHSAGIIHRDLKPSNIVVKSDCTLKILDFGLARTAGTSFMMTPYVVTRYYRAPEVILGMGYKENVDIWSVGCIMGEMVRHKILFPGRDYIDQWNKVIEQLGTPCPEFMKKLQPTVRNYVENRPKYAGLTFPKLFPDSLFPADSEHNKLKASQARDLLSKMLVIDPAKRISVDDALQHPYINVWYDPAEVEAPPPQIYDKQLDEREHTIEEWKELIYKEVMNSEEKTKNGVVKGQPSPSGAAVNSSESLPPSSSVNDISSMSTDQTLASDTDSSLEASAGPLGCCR
Chain of Lysosomal acid glucosylceramidase (P04062 whole entry): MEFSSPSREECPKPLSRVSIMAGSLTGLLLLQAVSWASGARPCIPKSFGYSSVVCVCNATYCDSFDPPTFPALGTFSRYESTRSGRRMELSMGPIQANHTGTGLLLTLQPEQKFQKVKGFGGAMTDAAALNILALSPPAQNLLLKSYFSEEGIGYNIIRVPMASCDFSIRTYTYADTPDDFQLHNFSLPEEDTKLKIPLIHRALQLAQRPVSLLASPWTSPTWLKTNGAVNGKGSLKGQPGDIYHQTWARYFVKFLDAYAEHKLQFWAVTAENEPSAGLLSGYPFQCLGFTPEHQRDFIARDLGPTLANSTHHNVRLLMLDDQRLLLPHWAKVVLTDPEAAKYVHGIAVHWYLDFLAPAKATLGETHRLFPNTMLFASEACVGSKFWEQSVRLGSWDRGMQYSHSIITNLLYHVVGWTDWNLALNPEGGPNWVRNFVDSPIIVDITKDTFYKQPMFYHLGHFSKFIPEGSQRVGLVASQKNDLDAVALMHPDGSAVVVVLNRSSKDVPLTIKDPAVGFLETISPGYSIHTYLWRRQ
Chain of Interleukin-8 (P10145 whole entry): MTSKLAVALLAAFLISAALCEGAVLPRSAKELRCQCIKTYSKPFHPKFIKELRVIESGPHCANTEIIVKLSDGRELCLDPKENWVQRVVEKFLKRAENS
Chain of Kappa-type opioid receptor (P41145 whole entry): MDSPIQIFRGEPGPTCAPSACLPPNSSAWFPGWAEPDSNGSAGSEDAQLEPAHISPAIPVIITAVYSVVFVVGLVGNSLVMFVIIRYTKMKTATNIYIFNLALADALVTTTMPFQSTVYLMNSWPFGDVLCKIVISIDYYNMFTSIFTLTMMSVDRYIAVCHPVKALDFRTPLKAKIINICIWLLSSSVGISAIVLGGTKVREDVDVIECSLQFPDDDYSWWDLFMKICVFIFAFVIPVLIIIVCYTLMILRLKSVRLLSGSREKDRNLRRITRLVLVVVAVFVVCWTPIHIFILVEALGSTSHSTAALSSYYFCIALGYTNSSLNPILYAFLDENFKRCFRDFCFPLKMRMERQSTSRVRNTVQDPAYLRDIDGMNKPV
Chain of Acyl-homoserine lactone acylase PvdQ (Q9I194 24-193 limits assumed): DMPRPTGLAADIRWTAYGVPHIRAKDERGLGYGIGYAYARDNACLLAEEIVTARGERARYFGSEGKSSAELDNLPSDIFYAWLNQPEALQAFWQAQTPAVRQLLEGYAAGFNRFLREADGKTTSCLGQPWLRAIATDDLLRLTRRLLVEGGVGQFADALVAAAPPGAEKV
Chain of Acyl-homoserine lactone acylase PvdQ (Q9I194 217-762 limits assumed): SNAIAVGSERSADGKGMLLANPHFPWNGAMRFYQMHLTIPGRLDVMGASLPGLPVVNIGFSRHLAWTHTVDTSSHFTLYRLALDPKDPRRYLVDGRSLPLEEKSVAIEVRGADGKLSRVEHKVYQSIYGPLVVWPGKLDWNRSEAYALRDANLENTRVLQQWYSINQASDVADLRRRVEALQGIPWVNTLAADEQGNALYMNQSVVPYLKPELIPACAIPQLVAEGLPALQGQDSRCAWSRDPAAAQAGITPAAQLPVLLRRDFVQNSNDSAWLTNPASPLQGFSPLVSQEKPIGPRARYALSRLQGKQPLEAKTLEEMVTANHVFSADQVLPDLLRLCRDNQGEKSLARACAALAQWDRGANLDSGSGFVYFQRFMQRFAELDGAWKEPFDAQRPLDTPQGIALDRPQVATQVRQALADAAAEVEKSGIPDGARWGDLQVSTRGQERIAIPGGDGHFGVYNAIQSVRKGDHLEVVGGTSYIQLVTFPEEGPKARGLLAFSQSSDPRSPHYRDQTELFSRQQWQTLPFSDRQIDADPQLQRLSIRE
Chain of Melanin-concentrating hormone receptor 1 (Q99705 whole entry): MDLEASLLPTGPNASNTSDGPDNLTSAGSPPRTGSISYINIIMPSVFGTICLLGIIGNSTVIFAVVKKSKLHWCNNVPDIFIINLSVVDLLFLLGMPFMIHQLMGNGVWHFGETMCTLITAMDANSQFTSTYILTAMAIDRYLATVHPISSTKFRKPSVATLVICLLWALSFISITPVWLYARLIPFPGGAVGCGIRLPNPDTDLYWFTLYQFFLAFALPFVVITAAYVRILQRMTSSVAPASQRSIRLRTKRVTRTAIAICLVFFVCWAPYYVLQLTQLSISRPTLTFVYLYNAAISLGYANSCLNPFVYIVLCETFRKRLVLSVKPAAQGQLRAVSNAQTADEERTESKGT
Chain of Neuropeptides B/W receptor type 1 (P48145 whole entry): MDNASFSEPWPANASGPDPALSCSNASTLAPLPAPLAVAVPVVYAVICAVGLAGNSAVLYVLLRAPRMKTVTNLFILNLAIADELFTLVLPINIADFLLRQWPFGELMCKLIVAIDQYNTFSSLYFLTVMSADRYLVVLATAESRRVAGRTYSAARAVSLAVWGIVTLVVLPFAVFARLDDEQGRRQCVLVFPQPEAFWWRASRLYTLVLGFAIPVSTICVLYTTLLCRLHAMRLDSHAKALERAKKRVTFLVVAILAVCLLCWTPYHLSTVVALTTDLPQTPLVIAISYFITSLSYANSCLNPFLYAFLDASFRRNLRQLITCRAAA

In the case of `Cc1ccnc(Nc2nc(-c3c(C)nc4sccn34)cs2)c1`, the IC50 [1] is reported as > 93.1 µM (not active) and the EC50 [2] is reported as > 50 µM (not active).

With `O=C(CN(Cc1cccs1)C(=O)c1ccccn1)NC1CCCCCC1` the EC50 [3] was > 20 µM (inactive).

With `Cc1cc(OCC(=O)NC2CCCCC2)ccc1Cl` the EC50 [4] was 1.88 µM (active).

In the case of `Cc1ccc(S(=O)(=O)n2c(N)nc3cc(C)c(C)cc32)cc1`, the IC50 (Interleukin-8) is reported as > 5 µM (inactive), the IC50 (HEK293 [5]) is reported as > 20 µM (inactive) and the IC50 (HEK293 [6]) is reported as > 20 µM (inactive). The IC50 (Tumor necrosis factor) was > 20 µM (inactive).

In the case of `CCN1/C(=C/C=C/c2sc3ccccc3[n+]2CC)Sc2ccccc21` [ALAZANINE], the EC50 [7] is reported as 243 µM (active).

For `CCOc1ccc(-c2cn3ccccc3n2)cc1`, the AC50 [8] was 92.1 µM (active), the AC50 [9] was 5.05 µM (active) and the AC50 [10] was > 52 µM (inactive). The AC50 [11] was > 52 µM (inactive), the AC50 [12] was > 52 µM (inactive) and the AC50 [13] was 4.5 µM (active).

In the case of `CC(C)c1ccc(-n2ncc(Cl)c(Oc3ccc(N)cc3)c2=O)cc1`, the IC50 [14] is reported as 7 µM (active) and the IC50 [15] is reported as 2.5 µM (active).

For `COc1ccc(N(C(=O)[C@@H](C)Cl)C(C(=O)NCCc2ccccc2)c2cccs2)cc1Cl` (some centres undefined), the AC50 [16] was > 454 µM (inactive) and the AC50 [17] was > 454 µM (inactive).
